Type in all cases: cell-based
One test deals with A2780cis. In words: Antiproliferative activity, cell viability by CellTiter-Glo after 96 hours. The note with it: A2780cis (ovarian cancer), mean ± standard deviation of triplicate measurements. The procedure: (§1) Tecan analyser, mod. Infinite® M1000.
(§2) Tests were performed for the purpose of determining the inhibitory concentration (IC50) of a compound of the invention towards tumour cell lines and on a control cell line; for comparative purposes, the same tests were performed with the cisplatin compound.
(§3) The tested cell lines were: A2780, A2780cis, OVCAR5, OVCAR3 e KURAMOCHI (ovarian cancer), A549 (lung cancer), HeLa (cervical cancer), DLD1 (colon cancer) and MRC-5 (control; lung fibroblasts). The mother solutions were obtained in dimethyl sulfoxide for the Pd(I) compound and in H2O for cisplatin.
(§4) The cells were kept, according to the protocols indicated by the suppliers, at 37 °C in an atmosphere containing 5% carbon dioxide. About 500 cells were plated on 96 different well-plates and kept under such conditions for 96 hours.
(§5) The viability of the cells was determined, after treatment of the cells with a 1:1 CellTiter-Glo® solution (registered trademark of Promega Corp., Madison, Wisconsin, USA) and DPBS, with the Tecan Infinite® M1000 instrument. The IC50 values were calculated by the response curves to the dose. The means and standard deviations were obtained from triplicate measurements.
(Cellular ATP, detected with luciferase, serves as a proxy for viable cell number.)

A further test concerns DLD1. The test is described as above. The following applies: DLD1 (colon cancer), mean ± standard deviation of triplicate measurements. The method, then:
as §1, §2, §3, §4, §5

A further test has as its system OVCAR5. Described as above. The note with it: OVCAR5 (ovarian cancer), mean ± standard deviation of triplicate measurements. The method, then: as §1, §2, §3, §4, §5
Another test relates to Kuramochi. The test is described as above. The following applies: Kuramochi (ovarian cancer), mean ± standard deviation of triplicate measurements. The method, then:
as §1, §2, §3, §4, §5

A further test has as its system OVCAR3. The description is as above. The following applies: OVCAR3 (ovarian cancer), mean ± standard deviation of triplicate measurements. The method, then:
as §1, §2, §3, §4, §5

A further test concerns MRC-5. In words: Antiproliferative activity on control cell line, cell viability by CellTiter-Glo after 96 hours. The following applies: MRC-5 (control; lung fibroblasts), mean ± standard deviation of triplicate measurements. The method, then: as §1, §2, §3, §4, §5

What is called IC50 is the concentration at which inhibition is half-maximal. Low values mean greater potency in that assay, high ones weaker potency in that assay.

Take `N.N.[Cl][Pt][Cl]` [Cisplatin, cis-diamine-dichloroplatinum(II)]: the IC50 is 43 ± 3 µM in the test on A2780cis; 4.2 ± 0.5 µM with DLD1; 5.2 ± 0.8 µM in the test with OVCAR5; 1.7 ± 0.3 µM with Kuramochi; 2.2 ± 0.1 µM in the test on OVCAR3; 14 ± 1 µM with MRC-5.

For the origin of these results see EP4069710B1, “PD(I) COMPLEXES, PROCESS FOR THEIR PREPARATION AND USE THEREOF AS ANTITUMOUR AGENTS” (Universita' Ca' Foscari Venezia, priority 2019, dated 2021).
